Key:
K18 filaments (Y310W) = experiment: Tryptophan fluorescence depolymerisation assay, K18 filaments; type: biochemical, human; details: 60 μM compound
Procedure: (§1) For the fluorescence depolymerisation assay, 60 μM inhibitor compound were added to pre-formed PHFs (10 μM) and incubated overnight at 37° C. PHFs were formed by incubation of tau construct K19/Y310W (50 μM) or K18/ΔK280/Y310W with 12.5 μM heparin in volume of 100 μl at 37° C. in PBS, pH 7.4. Incubation time was three days. The formation of aggregates was observed as a shift of the emission maximum from ˜354 nm to ˜340 nm.
All other compounds yielded emission maxima of the protein after treatment around 350-353 nm, close to the value of soluble tau, indicating a depolymerisation efficiency of about 80-90%.
(§2) FIG. 5: Disassembly of preformed PHFs measured by tryptophan fluorescence shift assay and filter assay. Experiments were performed with tau constructs containing the Y310W mutation as in FIG. 3.

[1] = test system: PHFs from K18/ΔK280/Y310W; experiment: Tryptophan fluorescence depolymerisation assay, K18/ΔK280; type: biochemical, human; details: 60 μM compound
Procedure: as §1, §2

[2] = test system: N2a cells expressing K18/ΔK280; experiment: Tau aggregation in cells, thioflavine S staining; type: cell-based, mouse; details: 15 μM emodin
Procedure: The tau construct K18/ΔK280 was expressed in the mouse neuroblastoma cell line N2a in an inducible manner under the control of the reverse tetracycline-controlled transactivator (rtTA) as described elsewhere (Gossen & Bujard, 2002). The inducible N2a/K18ΔK280 cells were cultured in MEM medium supplemented with 10% fetal calf serum, 2 mM glutamine and 0.1% nonessential amino acids. The expression of K18/ΔK280 was induced by addition 1 μg doxycyclin per 1 ml medium. The effect of aggregation inhibition was observed by adding the inhibitor emodin (15 μM). After 3-7 days the cells were harvested and tested for tau aggregation, thioflavin S fluorescence, and viability.
The levels and solubility of the K18/ΔK280 tau protein were determined by the method of Greenberg and Davies (1990) which makes use of the insolubility of protein aggregates after treatment with sarkosyl. The supernatant and sarcosyl-insoluble pellets were analysed by Western blotting with the pan-tau antibody K9JA and analysed by densitometry. Aggregation of tau in cells was tested by the fluorescence of thioflavine S. ThS signals were scored in three independent fields containing 40 cells each.
Two parallel cell cultures were incubated, one with 1 μg/ml doxycyclin (to induce the expression of the protein), another with 1 μg/ml doxycyclin and 15 μM emodin for 3 days. […]

Row | SMILES | depolymerisation efficiency, K18 filaments, Trp fluorescence (K18 filaments (Y310W)) [%] | depolymerising PHFs, K18/ΔK280, Trp fluorescence [1] | inhibition of aggregation as measured by ThS [2] | cells with ThS signal ([2]; 3 days induction, without emodin 28%) [%]
1 | O=C(c1ccccc1)c1ccc(O)c(O)c1O [PHF005, 1-Phenyl-1-(2,3,4-trihydroxy-phenyl)-methanone] | 80 | most potent agent | – | –
2 | Cc1cc(O)c2c(c1)C(=O)c1cc(O)cc(O)c1C2=O [Emodin, 1,3,8-Trihydroxy-6-methyl-anthraquinone] | – | – | about 2 fold | 15

— patent publication US20060223812A1, “Treating neurodegenerative conditions” (MAX-PLANCK-GESELLSCHAFT ZUR FORDERUNGDER WISSENSCHAFTEN, …, priority 2004, published 2006)
